Experiments:
Coagulation factor FXa = Coagulation factor FXa (Homo sapiens, UniProt P00742); experiment: Inhibitory activity on coagulation factor FXa (chromogenic substrate CS-11(22)); assay type: biochemical; conditions: sample 1 mg/mL; for Inhibitory effect on coagulation factor FXa: incubated at 37° C. for 1 h
Procedure: (§1) • a. 100 μL of FXa (5 nM) and 50 μL of the sulfate gluco-galacto-oligosaccharide sample (1 mg/mL) were mixed in a 96-well plate, incubated at 37° C. for 1 h, added with 50 μL of a substrate CS-11(22) (1.77 mM), and detected at a wavelength of 405 nm for 60 min, detecting once every minute. • b. 100 μL of HFXIa (human coagulation factor XIa, 1 nM) and 50 μL of the sulfate gluco-galacto-oligosaccharide sample (1 mg/mL) were mixed in a 96-well plate, incubated at 37° C. for 1 h, added with 50 μL of a substrate S2366 (1 mM), and detected at a wavelength of 405 nm for 60 min, detecting once every minute. • c. 100 μL of FXIIa (4 nM) and 50 μL of the sulfate gluco-galacto-oligosaccharide sample (1 mg/mL) were mixed in a 96-well plate, incubated 37° C. for 1 h, added with 50 μL of a substrate Pefachrome FXIIa/TH5253 (1 mM), and detected at a wavelength of 405 nm for 60 min, detecting once every minute. • d. 100 μL of Trypsin (8.3 nM) and 50 μL of the sulfate gluco-galacto-oligosaccharide sample (1 mg/mL) were mixed in a 96-well plate, incubated 37° C. for 1 h, added with 50 μL of a substrate CS-11(22) (1 mM), and detected at a wavelength of 405 nm for 60 min, detecting once every minute. • e. 100 μL of Thrombin (0.2 IU/mL) and 50 μL of the sulfate gluco-galacto-oligosaccharide sample (1 mg/mL) were mixed in a 96-well plate, incubated at 37° C. for 1 h, added with 50 μL of a substrate CS-01(38) (400 μM), and detected at a wavelength of 405 nm for 60 min, detecting once every minute. • f. 100 μL of Kallikrein (1 nM) and 50 μL of the sulfate gluco-galacto-oligosaccharide sample (1 mg/mL) were mixed in a 96-well plate, incubated 37° C. for 1 h, added with 50 μL of a substrate CS-31(02) (1 mM), and detected at a wavelength of 405 nm for 60 min, detecting once every minute.
(§2) Data processing was conducted using the software Graphpad Prism 6.0. Regression analysis was conducted with the reaction time as an abscissa and the absorbance value at 405 nm as an ordinate.
The calculated inhibition rate=(V0−V1)/V0×100%. […] The degree of sulfation of the sulfate gluco-galacto-oligosaccharide was controlled by controlling the ratio of gluco-galacto-oligosaccharide and sulfating reagent. […] It was seen that the more sulfate groups on average per sugar residue, the higher the inhibition rate of FXa by the sulfate gluco-galacto-oligosaccharide.

[1] = Tail tip bleeding time (bleeding risk); assay type: in vivo, C57/BL-6J mice; conditions: tail vein, mice; for cumulative bleeding time: 10 min after administration, capped at 20 min
Procedure: (§3) The experimental animals were male C57/BL-6J mice, weighing 18 g to 20 g. The mice were housed under standard experimental conditions with a 12-hour light-12-hour dark cycle with free access to water and food. The mice were anesthetized by intraperitoneal injection of 5% chloral hydrate, and administration of the drug was administered through the tail vein after confirming that the mice were completely anesthetized and had no eyelid reflex. The mice were randomly divided into three groups. A first group was a negative control group and was injected with physiological saline through the tail vein; a second group was a low-dose group, with 0.5 mg/mL sulfate gluco-galacto-oligosaccharide injected into the tail vein; and a third group was a high-dose group, with 1.0 mg/mL sulfate gluco-galacto-oligosaccharide injected into the tail vein.
10 min after administration, the mouse was placed stably with its tail in a naturally straightened state. The mouse tail was cut off 3 mm from the tip, and then immersed in a silanized tube filled with 37° C. physiological saline. Start timing from cutting off the tail tip, 20 min. the accumulated bleeding time t after cutting off the tail tip of the mouse was recorded with a stopwatch. If the bleeding time t was greater than 20 min, it was recorded as 20 min.
Data processing was conducted using the Graphpad Prism 6.0 software. A dot plot of sample concentration was made versus bleeding time. P<0.05 indicated a significant difference.
Bleeding time refers to a duration required from bleeding to natural hemostasis after capillary damage. In the negative control group (physiological saline group), the cumulative bleeding time was 10.35±5.48 min.

[2] = molecular target: T1, HFXIa (human coagulation factor XIa) (Homo sapiens, UniProt P03951); experiment: Inhibitory activity on coagulation factor XIa (chromogenic substrate S2366); assay type: biochemical; conditions: sample 1 mg/mL, incubated at 37° C. for 1 h
T1 construct: HFXIa (human coagulation factor XIa, 1 nM)
Procedure: as §1, with “100 μL of Thrombin (0.2 IU/mL) and 50 μL of the sulfate gluco-galacto-oligosaccharide sample (1 mg/mL) were mixed in a 96-well plate, incubated at 37° C. for 1 h, added with 50 μL of a substrate CS-01(38) (400 μM), and detected at a wavelength of 405 nm for 60 min, detecting once every minute. • f. 100 μL of Kallikrein (1 nM) and 50 μL of the sulfate gluco-galacto-oligosaccharide sample (1 mg/mL) were mixed in a 96-well plate, incubated 37° C. for 1 h, added with 50 μL of a substrate CS-31(02) (1 mM), and detected at a wavelength of 405 nm for 60 min, detecting once every minute.” left out
as §2

Thrombin = molecular target: T2, Thrombin (Homo sapiens, UniProt P00734); experiment: Inhibitory activity on thrombin (chromogenic substrate CS-01(38)); assay type: biochemical; conditions: sample 1 mg/mL, incubated at 37° C. for 1 h
T2 construct: 100 μL of Thrombin (0.2 IU/mL)
Procedure: as §1, with “100 μL of Thrombin (0.2 IU/mL) and 50 μL of the sulfate gluco-galacto-oligosaccharide sample (1 mg/mL) were mixed in a 96-well plate, incubated at 37° C. for 1 h, added with 50 μL of a substrate CS-01(38) (400 μM), and detected at a wavelength of 405 nm for 60 min, detecting once every minute. • f. 100 μL of Kallikrein (1 nM) and 50 μL of the sulfate gluco-galacto-oligosaccharide sample (1 mg/mL) were mixed in a 96-well plate, incubated 37° C. for 1 h, added with 50 μL of a substrate CS-31(02) (1 mM), and detected at a wavelength of 405 nm for 60 min, detecting once every minute.” left out
as §2

Coagulation factor FXIIa = molecular target: T3, Coagulation factor FXIIa (Homo sapiens, UniProt P00748); experiment: Inhibitory activity on FXIIa (chromogenic substrate Pefachrome FXIIa/TH5253); assay type: biochemical; conditions: sample 1 mg/mL, incubated at 37° C. for 1 h
T3 sequence (P00748 373-615 limits assumed): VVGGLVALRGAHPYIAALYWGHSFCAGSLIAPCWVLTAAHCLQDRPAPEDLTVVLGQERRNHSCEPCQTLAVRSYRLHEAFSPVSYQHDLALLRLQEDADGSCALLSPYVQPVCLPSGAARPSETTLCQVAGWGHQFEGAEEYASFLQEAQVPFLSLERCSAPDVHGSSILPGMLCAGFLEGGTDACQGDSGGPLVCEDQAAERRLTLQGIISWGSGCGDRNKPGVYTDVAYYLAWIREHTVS
Procedure: as §1, with “100 μL of Thrombin (0.2 IU/mL) and 50 μL of the sulfate gluco-galacto-oligosaccharide sample (1 mg/mL) were mixed in a 96-well plate, incubated at 37° C. for 1 h, added with 50 μL of a substrate CS-01(38) (400 μM), and detected at a wavelength of 405 nm for 60 min, detecting once every minute. • f. 100 μL of Kallikrein (1 nM) and 50 μL of the sulfate gluco-galacto-oligosaccharide sample (1 mg/mL) were mixed in a 96-well plate, incubated 37° C. for 1 h, added with 50 μL of a substrate CS-31(02) (1 mM), and detected at a wavelength of 405 nm for 60 min, detecting once every minute.” left out
as §2

[3] = tested on: ferric chloride-induced carotid artery thrombosis; experiment: Ferric chloride-induced carotid artery thrombosis model, blood vessel occlusion time; assay type: in vivo, C57/BL-6J mice; conditions: tail vein, mice
Procedure: as §3, with “vein. After tail vein administration, the mouse carotid arteries were dissected, and a filter paper piece (1 mm×2 mm) dipped in 6.0% ferric chloride solution was applied to the outer wall of the mouse carotid artery to allow induction for 3 min to construct a ferric chloride-induced carotid artery thrombosis model.” for “vein.”
The blood flow and thrombosis of the mouse carotid arteries were observed using a laser speckle flow imager, and the mouse carotid arteries were observed under the moorFLPI-2 lens for 15 min. The carotid arteries of the mice at the end of the observation were carefully dissected and stained with HE.
Charts were produced using GraphPad Prism 6.0 software, and statistical differences were analyzed using one-way analysis of variance and Dunnett's multiple comparisons. P<0.05 indicated a significant difference.
Blood vessel occlusion time refers to a duration from removal of the filter paper soaked in ferric chloride to the blood vessel occlusion. If no thrombosis was observed 15 min after removal of the ferric chloride filter paper, 15 min was considered as the vessel occlusion time. Combined with FIG. 3, in the negative control group (physiological saline group), the average blood vessel occlusion time was 4.5±0.23 min. […]

Kallikrein = Kallikrein (Homo sapiens, UniProt P03952); experiment: Inhibitory activity on kallikrein (chromogenic substrate CS-31(02)); assay type: biochemical; conditions: sample 1 mg/mL, incubated at 37° C. for 1 h
Procedure: as §1, with “100 μL of Thrombin (0.2 IU/mL) and 50 μL of the sulfate gluco-galacto-oligosaccharide sample (1 mg/mL) were mixed in a 96-well plate, incubated at 37° C. for 1 h, added with 50 μL of a substrate CS-01(38) (400 μM), and detected at a wavelength of 405 nm for 60 min, detecting once every minute. • f. 100 μL of Kallikrein (1 nM) and 50 μL of the sulfate gluco-galacto-oligosaccharide sample (1 mg/mL) were mixed in a 96-well plate, incubated 37° C. for 1 h, added with 50 μL of a substrate CS-31(02) (1 mM), and detected at a wavelength of 405 nm for 60 min, detecting once every minute.” left out
as §2

Trypsin = experiment: Inhibitory activity on trypsin (chromogenic substrate CS-11(22)); assay type: biochemical; conditions: sample 1 mg/mL, incubated at 37° C. for 1 h
Procedure: as §1, with “100 μL of Thrombin (0.2 IU/mL) and 50 μL of the sulfate gluco-galacto-oligosaccharide sample (1 mg/mL) were mixed in a 96-well plate, incubated at 37° C. for 1 h, added with 50 μL of a substrate CS-01(38) (400 μM), and detected at a wavelength of 405 nm for 60 min, detecting once every minute. • f. 100 μL of Kallikrein (1 nM) and 50 μL of the sulfate gluco-galacto-oligosaccharide sample (1 mg/mL) were mixed in a 96-well plate, incubated 37° C. for 1 h, added with 50 μL of a substrate CS-31(02) (1 mM), and detected at a wavelength of 405 nm for 60 min, detecting once every minute.” left out
as §2

[4] = tested on: intrinsic coagulation pathway; experiment: Activated partial thromboplastin time (APTT) of plasma from mice after tail vein injection; assay type: in vivo, C57/BL-6J mice; conditions: 0.25, 0.5 and 1.0 mg/mL injected into the tail vein
Procedure: The experimental animals were male C57/BL-6J mice, weighing 18 g to 20 g. The mice were housed under standard experimental conditions with a 12-hour light-12-hour dark cycle with free access to water and food. The mice were anesthetized by intraperitoneal injection of 5% chloral hydrate, and administration of the drug was administered through the tail vein after confirming that the mice were completely anesthetized and had no eyelid reflex. The mice were randomly divided into four groups. […]
Activated partial thromboplastin time (APTT) is a duration required to observe plasma coagulation after adding an APTT reagent and calcium ions to the tested plasma. […] The APTT was measured according to the operating procedures in the kit instructions, and the fibrin formation time was read on the coagulometer. […]
The coagulation time of the physiological saline group was recorded as 1 times, and the multiples of APTT of the sulfate gluco-galacto-oligosaccharide samples with different concentrations relative to the physiological saline group were calculated.

Sequence of Coagulation factor FXa (P00742 235-488 limits assumed): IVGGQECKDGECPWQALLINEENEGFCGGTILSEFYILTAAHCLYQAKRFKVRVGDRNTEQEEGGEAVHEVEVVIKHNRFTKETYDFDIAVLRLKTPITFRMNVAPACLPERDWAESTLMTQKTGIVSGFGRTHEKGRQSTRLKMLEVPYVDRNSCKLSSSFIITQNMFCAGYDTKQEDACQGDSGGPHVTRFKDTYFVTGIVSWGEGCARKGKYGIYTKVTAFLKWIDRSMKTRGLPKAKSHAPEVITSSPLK
Sequence of Coagulation factor FXa (P00742 41-179 limits assumed): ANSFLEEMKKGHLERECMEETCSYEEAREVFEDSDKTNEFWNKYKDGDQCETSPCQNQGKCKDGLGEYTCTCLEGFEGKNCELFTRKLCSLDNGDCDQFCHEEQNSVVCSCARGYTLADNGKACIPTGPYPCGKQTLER
Sequence of Kallikrein (P03952 391-638 limits assumed): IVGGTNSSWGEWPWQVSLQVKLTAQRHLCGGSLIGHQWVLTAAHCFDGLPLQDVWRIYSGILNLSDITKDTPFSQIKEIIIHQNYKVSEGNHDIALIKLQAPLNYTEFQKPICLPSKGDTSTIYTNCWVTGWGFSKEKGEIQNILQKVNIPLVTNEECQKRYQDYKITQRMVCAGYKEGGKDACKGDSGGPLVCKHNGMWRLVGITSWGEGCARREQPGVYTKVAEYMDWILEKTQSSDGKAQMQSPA
Sequence of Kallikrein (P03952 20-390 partner limits assumed): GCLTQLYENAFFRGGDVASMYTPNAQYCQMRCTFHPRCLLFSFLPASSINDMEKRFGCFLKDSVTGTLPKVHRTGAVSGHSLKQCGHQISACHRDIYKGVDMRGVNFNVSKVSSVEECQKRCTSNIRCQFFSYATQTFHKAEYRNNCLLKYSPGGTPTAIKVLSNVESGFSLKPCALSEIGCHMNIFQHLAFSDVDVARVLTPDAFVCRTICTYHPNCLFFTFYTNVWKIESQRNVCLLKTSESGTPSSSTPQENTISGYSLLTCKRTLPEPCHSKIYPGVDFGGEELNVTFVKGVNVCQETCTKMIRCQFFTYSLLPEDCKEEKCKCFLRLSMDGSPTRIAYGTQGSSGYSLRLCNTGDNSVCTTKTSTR
T1 sequence (P03951 388-625 limits assumed): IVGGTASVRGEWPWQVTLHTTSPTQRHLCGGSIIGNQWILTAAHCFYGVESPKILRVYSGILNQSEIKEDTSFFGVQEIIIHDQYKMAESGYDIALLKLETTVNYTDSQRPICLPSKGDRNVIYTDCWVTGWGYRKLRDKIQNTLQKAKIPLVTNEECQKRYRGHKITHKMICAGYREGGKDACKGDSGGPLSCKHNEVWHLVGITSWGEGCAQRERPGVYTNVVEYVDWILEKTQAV
T1 sequence (P03951 19-387 limits assumed): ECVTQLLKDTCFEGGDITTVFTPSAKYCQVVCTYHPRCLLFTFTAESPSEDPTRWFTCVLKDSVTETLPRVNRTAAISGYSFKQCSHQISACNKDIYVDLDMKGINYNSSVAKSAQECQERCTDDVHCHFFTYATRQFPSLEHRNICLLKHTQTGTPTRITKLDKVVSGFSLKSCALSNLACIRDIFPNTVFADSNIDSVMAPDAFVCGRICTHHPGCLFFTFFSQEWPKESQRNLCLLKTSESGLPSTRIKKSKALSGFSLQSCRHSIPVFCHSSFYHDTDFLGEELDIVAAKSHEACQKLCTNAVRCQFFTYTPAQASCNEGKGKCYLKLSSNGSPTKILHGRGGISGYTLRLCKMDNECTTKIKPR

gluco-galacto-oligosaccharide [reference compound]
Inhibitory effect on coagulation factor FXa (Coagulation factor FXa): no inhibitory activity

sulfate gluco-galacto-oligosaccharide
Difference of cumulative bleeding time from physiological saline group ([1]; 0.5 mg/mL and 1.0 mg/mL): no statistically significant difference
cumulative bleeding time ([1]; 0.5 mg/mL): 11.88 ± 4.44 min
cumulative bleeding time ([1]; 1.0 mg/mL): 11.60 ± 4.13 min
Inhibitory effect on coagulation factor FXIa [2]: No inhibition
Inhibitory effect on Thrombin (Thrombin): No inhibition
Inhibitory effect on coagulation factor FXIIa (Coagulation factor FXIIa): No inhibition
average blood vessel occlusion time ([3]; 0.5 mg/mL, observed 15 min): 5.4 ± 1.37 min
Blood flow in carotid artery ([3]; 1.0 mg/mL): remained unchanged
average blood vessel occlusion time ([3]; 1.0 mg/mL, 15 min recorded if no thrombosis within 15 min): 15 min
Inhibitory effect on Kallikrein (Kallikrein): No inhibition
Inhibitory effect on Trypsin (Trypsin): No inhibition
Effect on APTT (plasma coagulation time relative to physiological saline group) [4]: significant impact on APTT
Inhibitory effect on coagulation factor FXa (Coagulation factor FXa): Inhibition
Inhibition rate of FXa (Coagulation factor FXa; listed as sulfate gluco-galacto-oligosaccharide with averagely 1.65 sulfate groups per sug): 57.6%

sulfate gluco-galacto-oligosaccharide [0.47]
Inhibition rate of FXa (Coagulation factor FXa): 10.2%

sulfate gluco-galacto-oligosaccharide [1.23]
Inhibition rate of FXa (Coagulation factor FXa): 39.2%

sulfate gluco-galacto-oligosaccharide [2.10]
Inhibition rate of FXa (Coagulation factor FXa): 65.5%

sulfate gluco-galacto-oligosaccharide [2.52]
Inhibition rate of FXa (Coagulation factor FXa): 78.4%
